Experimental data from patent US20180147161A1, “MULTIDRUG BRITTLE MATRIX COMPOSITIONS” (BOARD OF REGENTS, THE UNIVERSITY OF TEXAS SYSTEM, priority 2015, published 2018).
Like-named read-outs stand apart in the source and are kept apart here.

Legend:
[1] = Particle size distribution by laser diffraction; type: physicochemical; details: for Particle size D10 / Particle size D90 / Particle size D50: laser diffraction
Procedure: Measurement of particle size distributions of budesonide, tiotropium bromide and formoterol fumarate before and after jet milling were measured by laser diffraction (HELOS, Sympatec GmbH, Clausthal-Zellerfelg, Germany). A small amount of formoterol fumarate and Tiotropium bromide were separately dispersed in 10 mL 0.01% tween 80 mineral oil and a small amount of budesonide was dispersed in 10 mL 0.01% tween 80 in deionized water. The samples were sonicated for 5 minutes and diluted with enough solvent to produce light obscuration in the range of 15-20%. The sizes reported are average values of at least 3 measurements. The results are presented as D(x) and span, where X is the cumulative percentile of particles under the referred size (e.g. D(50) corresponds to the median diameter of the particles). Span is a measurement of particle size distribution calculated as [(D(90)−D(10)]/D(50).

[2] = BET specific surface area of triple therapy materials; type: physicochemical; details: for SSA: after jet milling
Procedure: Powder porosity was determined through the measurement of the specific surface area (SSA) using a Monosorb MS-22 rapid surface area analyzer (Quantachrome Instruments, Boynton Beach, Fla.). The instrument uses a modified BET equation for SSA determination. Samples were degassed in a Thermoflow™ Degasser for at least 2 hours at 25° C. using 30% nitrogen in helium as the […].

[3] = Particle size distribution by laser diffraction; type: physicochemical; details: [(D(90)−D(10)]/D(50))
[4] = cited from earlier work

SMILES	Span ([1]; [(D(90)−D(10)]/D(50)))	Particle size D10 [1] [μm]	Particle size D90 [1] [μm]	SSA ± SD [2] [m^2/g]	Particle size D50 [1] [μm]	Span [3]	also measured
O.OC[C@H]1O[C@@H](O[C@H]2[C@H](O)[C@@H](O)C(O)O[C@@H]2CO)[C@H](O)[C@@H](O)[C@H]1O (some centres unmarked) [Lactose monohydrate, lactose monohydrate]	2.43	4.13 ± 0.11	100.9 ± 0.27	0.34 ± 0.03	–	–	Particle size D50 ([1]; listed as lactose, monohydrate): 39.78±1.32 μm; Particle size D50 ([1]; monohydrate): 39.78 ± 1.32 μm
COc1ccc(C[C@@H](C)NC[C@H](O)c2ccc(O)c(NC=O)c2)cc1.COc1ccc(C[C@@H](C)NC[C@H](O)c2ccc(O)c(NC=O)c2)cc1.O=C(O)/C=C/C(=O)O [jet milled formoterol fumarate, formoterol fumarate]	1.96	1.45 ± 1.01	10.29 ± 0.07	5.08 ± 0.26	4.51 ± 0.02	–	–
COc1ccc(C[C@@H](C)NC[C@H](O)c2ccc(O)c(NC=O)c2)cc1.COc1ccc(C[C@@H](C)NC[C@H](O)c2ccc(O)c(NC=O)c2)cc1.O=C(O)/C=C/C(=O)O [Formoterol furmarate, formoterol fumarate]	7.75	1.16 ± 0.05	49.78 ± 7.84	2.97 ± 0.05	6.27 ± 0.97	7.75	D50 ([1]; after jet milling): 4.51±0.02 μm; Span ([1]; after jet milling): 1.96; Particle size D50 ([1]; listed as Formoterol): 6.27±0.97 μm; SSA [2]: 5.08±0.26 m^2/g; SSA ± SD ([2]; listed as formoterol): 2.97±0.05 m^2/g
OCc1cc(C(O)CNCCCCCCOCCCCc2ccccc2)ccc1O (centres unmarked) [salmeterol xinafoate]	–	–	–	–	–	–	Solubility in water [4]: sparingly soluble
OC[C@@H](O)[C@@H](O)[C@H](O)[C@H](O)CO [Mannitol, D-(+)-Mannitol]	1.8	6.88 ± 0.07	101.91 ± 0.41	0.22 ± 0.001	52.70 ± 0.59	1.80	Particle size D50 ([1]; listed as mannitol): 52.70±0.59 μm
C[N+]1(C)[C@@H]2C[C@@H](OC(=O)C(O)(c3cccs3)c3cccs3)C[C@H]1[C@@H]1O[C@@H]12 [Tiotropium bromide, tiotropium bromide]	2.14	1.10 ± 0.01	12.11 ± 0.07	2.08 ± 0.13	5.14 ± 0.03	2.14	D50 ([1]; after jet milling): 4.65±0.04 μm; Span ([1]; after jet milling): 2.0; Particle size D50 ([1]; listed as tiotropium): 5.14±0.03 μm; SSA [2]: 2.86±0.11 m^2/g; SSA ± SD ([2]; listed as tiotropium): 2.08±0.13 m^2/g
C[C@@H]1C[C@H]2[C@@H]3CCC4=CC(=O)C=C[C@]4(C)[C@@]3(Cl)[C@@H](O)C[C@]2(C)[C@@]1(OC(=O)c1ccco1)C(=O)CCl [mometasone furoate]	–	–	–	–	–	–	Solubility in water [4]: practically insoluble
C[N+]1(C)[C@@H]2C[C@@H](OC(=O)C(O)(c3cccs3)c3cccs3)C[C@H]1[C@@H]1O[C@@H]12 [Jet milled tiotropium bromide, tiotropium bromide]	2.0	1.09 ± 0.79	10.39 ± 0.04	2.86 ± 0.11	4.65 ± 0.04	–	–
